Experimental data as given in patent publication US7531519B2, “Polygalatenosides and use thereof as an antidepressant agent” (Medical and Pharmaceutical Industry Technology and …, priority 2006, dated 2009).
pIC50: −log10 of the molar value.

Target: T1, human norepinephrine transporter (Homo sapiens, UniProt P23975)
T1 construct: expressed in transfected cells; host or cells: MDCK (dog kidney) cells, stably transfected; total cell membranes
Assay: [125I]RTI-55 membrane binding assay
Details: for pIC50: membranes of MDCK cells transfected with human NET, 0.2 nM [125I]RTI-55, 4° C., 3 h, read-out: IC50, inhibition of [125I]RTI-55 binding to norepinephrine transporter; for inhibition of [125I]RTI-55 binding to norepinephrine transporter (result in words): qualitative statement
Protocol: Membrane Binding Assay. Membranes from dog kidney MDCK cells, which stably transfected with the human norepinephrine transporter, were used. Total cell membranes were prepared from transfected cells grown to confluence in 500 cm^2 tissue culture dishes. Cells were scraped into centrifuge tube and pelleted at 900 g and 4° C. for 10 min. The pellets were resuspended in modified Tris-HCl buffer (50 mM Tris-HCl, 100 mM NaCl, 1 μM leupetin, 10 μM PMSF; pH 7.4), and centrifuged at 17000 g and 4° C. for 30 min. Then, the pellets were resuspended, homogenized with a glass homogenizer with a Teflon pestle and centrifuged at 17000 g and 4° C. for 90 minutes. Pellets were collected and resuspended in modified Tris-HCl buffer. Protein concentrations were determined using BCA protein assay reagent (Pierce, Rockford). […] The binding was terminated by rapid vacuum filtration over Whatman GF/B filters soaked in 0.3% polyethylineimine followed by three rapid 1 mL washes in ice-cold buffer. Bound radioactivity was measured by gamma emission spectrometry. Non-specific binding was determined in the presence of 10 μM desipramine and was subtracted from the data in the absence of desipramine to yield specific binding.

T1 sequence (P23975 whole entry): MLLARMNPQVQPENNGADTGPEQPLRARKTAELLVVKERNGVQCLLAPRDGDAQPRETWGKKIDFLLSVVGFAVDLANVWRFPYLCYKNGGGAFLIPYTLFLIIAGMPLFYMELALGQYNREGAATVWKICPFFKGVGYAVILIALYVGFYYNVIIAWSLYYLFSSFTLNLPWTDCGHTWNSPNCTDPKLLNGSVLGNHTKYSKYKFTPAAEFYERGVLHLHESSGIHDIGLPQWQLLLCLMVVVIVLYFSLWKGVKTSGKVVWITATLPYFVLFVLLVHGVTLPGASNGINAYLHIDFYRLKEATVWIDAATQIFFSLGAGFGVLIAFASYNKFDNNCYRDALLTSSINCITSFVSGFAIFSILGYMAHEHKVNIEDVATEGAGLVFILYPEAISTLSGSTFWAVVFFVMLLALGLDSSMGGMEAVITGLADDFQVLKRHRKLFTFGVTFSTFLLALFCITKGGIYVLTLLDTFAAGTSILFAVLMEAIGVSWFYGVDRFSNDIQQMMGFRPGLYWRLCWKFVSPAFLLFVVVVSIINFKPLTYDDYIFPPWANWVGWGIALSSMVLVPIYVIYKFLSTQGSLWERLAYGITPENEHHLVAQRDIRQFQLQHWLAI

| pIC50 | inhibition of [125I]RTI-55 binding to norepinephrine transporter (result in words) | Compound |
| --- | --- | --- |
| 5.22 | more potent than the others | O=C(OC1C(O)C(CO)OC(OC2COC(CO)C(O)C2O)C1O)c1ccccc1 (stereo not drawn) [Compound 2, 3-O-benzoyl-polygolitosyl-(2→1)-α-galactose] |
| 4.52 | more potent than the others | O=C(OCC1OC(OC2COC(CO)C(O)C2O)C(O)C(O)C1O)c1ccccc1 (stereo not drawn) [Compound 1, 6-O-benzoyl polygolitosyl-(2→1)-α-galactose] |
